# System: Plasmodium falciparum
# Experiment: GSK_TCMDC: Inhibition of Plasmodium falciparum 3D7 in whole erythrocytes, using parasite LDH activity as an index of growth.
# Assay type: functional, organism-based
# Conditions: Plasmodium falciparum, 3D7
row,SMILES,XC50 [nM]
1,COc1ccc(NC(=O)[C@H](Cc2ccccc2)Nc2cc(C)nc(NCCN3CCCC3)n2)cc1,1390
2,Cn1c(NC(=O)CCCCCNC(=O)c2ccc(O)c(-c3ccc(Cl)c(Cl)c3)c2)nc2ccccc21,726
3,CCOc1ccc(C2CCN(CCCCNC(=O)c3ccc(NC(=O)c4ccc(Cl)cc4)cc3)CC2)c(OCC)c1,677
4,NC1CCN(Cc2cccc(-c3ccc(-c4nc5cc(F)ccc5[nH]4)cc3)c2)C1 (centres undefined),596
5,O=c1cc(NCCCCNCc2ccc(Br)c(Br)c2)[nH]c2ccccc12,856
6,CSc1c(CNCCCNc2cc(=O)c3ccccc3[nH]2)[nH]c2ccccc12,1120
7,Cc1nn(C2CCS(=O)(=O)C2)c(C)c1C1Nc2ccccc2C(=O)N1Cc1ccc2c(c1)OCO2 (centres undefined),511
8,COCCNCc1nc(-c2ccc3c(Nc4ccc(Cl)cc4F)ccnc3c2)cs1,1080
9,COc1ccccc1N1CCN(C(C(=O)NCc2ccc(C)cc2)c2ccc(C)cc2)CC1 (centres undefined),932
10,NOCCCCOc1cc(Cl)c(Cl)cc1Cl,175
11,O=C(/C=C/c1ccc(Cl)c(Cl)c1)NCCCCCN1CCCN(C(=S)Nc2ccc(Cl)c(Cl)c2)CC1,869
12,CCCCCCN1CCN(Cc2cccc(NC(=O)c3cccc(OCC)c3)c2)CC1,1110
13,CCCCCOc1c(CCC)cc(Cc2cnc(N)nc2N)cc1CCC,898
14,Cc1cc(OCCCN2CCC(NS(=O)(=O)c3cccc(Br)c3)CC2)c2ccccc2n1,1110
15,Cc1ccccc1C1CCN(c2ccc(C(=O)Nc3ccccc3)cn2)CC1,327
16,N#Cc1ccc(-c2ccc(C(=O)NCCCCN3CCC(c4cn(CCO)c5ccccc45)CC3)cc2)cc1,954
17,CN(CCS(C)(=O)=O)Cc1ccc(-c2ccc3ncnc(Nc4ccc(OCc5cccc(F)c5)c(Cl)c4)c3c2)o1,681
18,N#Cc1cccc(C(=O)Nc2cccc(-c3cccc(CN4CCNCC4)c3)c2)c1,947
19,CCSc1ccc(C)cc1CON1C(N)=NC(N)=NC1(C)C,3.2
20,Oc1ccc(Nc2nc(NCc3ccccc3)c3ccccc3n2)cc1,192
21,Fc1cccc(-c2ccc3c(c2)CC(NCc2c[nH]c4cnccc24)C3)c1 (centres undefined),480
22,Cc1cc(N2Cc3ccccc3C2)nc(Nc2cccc(C#N)c2)n1,172
23,CC1c2cccc(O)c2CCN1CCc1ccc(Cl)c(Cl)c1 (centres undefined),138
24,O=C(/C=C/c1ccc(Cl)c(Cl)c1)NCCCCCN1CCC(NC(=O)Nc2ccccc2Cl)CC1,714
25,CC(=O)COc1c(C2CCN(CCCCNC(=O)c3ccc(-c4ccc(C(F)(F)F)cc4)cc3)CC2)ccc2c1CCCC2,784

row,SMILES,XC50 [nM]
1,Cc1ccc(-n2cc(CNCCc3nc(C)c[nH]3)c(-c3ccc(F)cc3)n2)cc1,1510
2,O=C(/C=C/c1ccc(Cl)c(Cl)c1)N1CCC(CCN2CCC(c3c[nH]c4ccccc34)CC2)CC1,602
3,Cc1cc(N)c2cc(NC(=O)c3ccc4ccccc4c3)ccc2n1,254
4,CC(=O)Nc1ccc(C2NC(=O)NC(c3ccccc3)=C2c2nc3ccccc3s2)cc1 (centres undefined),1110
5,Cc1ccc(NC(=O)c2ccc(Cl)cc2)cc1-c1ccc(C(=O)Nc2ccncc2)cc1,779
6,CC[C@@H]([C@@H](Cc1cc2ccccc2s1)C(=O)N[C@@H](CCCCNC(=O)OCc1ccccc1)C(=O)Nc1ccccn1)N(O)C=O,227
7,Cc1[nH]c(-c2ccc(F)cc2)cc1C(=O)NC1CCN(Cc2ccccc2)CC1,1130
8,CCOc1ccccc1CON1C(N)=NC(N)=NC1(C)C,3.71
9,CCOC(C(=O)OCC1CCCN(C)C1)(c1ccccc1)c1ccccc1 (centres undefined),868
10,Cc1cc(-c2ccc3c(c2)CCN(CCC2CCC(NC(=O)/C=C/c4cccc(F)c4)CC2)CC3)on1 (centres undefined),746
11,Cc1cc(O)c(-c2cc(C(=O)Nc3cccnc3)[nH]n2)cc1C,772
12,Cc1cc(NCCc2ccccc2)nc(NC(=N)Nc2cccc([N+](=O)[O-])c2)n1,140
13,CC1CCCCC1N(C)C1CCN(CCCNC(=O)C=Cc2ccccc2Cl)CC1 (centres undefined),666
14,CCNc1c2ccc(Cl)cc2nc2ccc(OC)cc12,843
15,CCNCc1ccc(-c2cccc(-c3nc4ccccc4[nH]3)c2)cc1,550
16,O=C(Nc1cccc(-c2ccc(-c3nc4cc(F)ccc4[nH]3)cc2)c1)c1cccnc1,612
17,NCC1CCCN1Cc1ccc(-c2ccc(-c3nc4cc(F)ccc4[nH]3)cc2)cc1 (centres undefined),926
18,COc1ccc2ncc(F)c([C@@H](O)CN3CCC(NCc4ccc5c(c4)NCCS5)CC3)c2n1,504
19,NC(=O)c1cnc2cc(-c3ccncc3)cc(Nc3ccc(NC(=O)C4CCCCC4)cc3)c2c1,232
20,Cc1ccc(C(=O)N2CCc3cc4nccc(N5CCN6CCC[C@H]6C5)c4cc32)cc1,1100
21,Cc1nnsc1C(=O)Nc1cccc(-c2cccc(-c3nc4cc(F)ccc4[nH]3)c2)c1,218
22,O=C(Cc1ccc(Nc2nccc(Nc3cccc4[nH]ncc34)n2)cc1)Nc1ccc(C(F)(F)F)cc1,888
23,COc1cccc2c(NN=Cc3ccccc3Cl)cc(C)nc12,211
24,COc1ccccc1N1CCN(Cc2c(NC(C)=O)sc(C)c2C)CC1,425
25,O=C(/C=C/c1ccc(Cl)c(Cl)c1)NCCCCCN1CCC(NC(=O)Nc2cccc(Cl)c2F)CC1,378

row,SMILES,XC50 [nM]
1,CC(Nc1cc(-c2ccccn2)nc(-c2ccccn2)n1)c1ccccc1 (centres undefined),453
2,CCOC(=O)CN(c1ccc(Br)cc1OCCOc1cc(Br)ccc1N(CC(=O)OCC)C(C)C(=O)OCC)C(C)C(=O)OCC (centres undefined),806
3,CC=CC1CCNC(C(O)c2ccnc3ccc(OC)cc23)C1 (centres undefined),1090
4,COc1c(C2CCN(CCCCNC(=O)c3ccc(C)c(-c4ccc(C(F)(F)F)cc4)c3)CC2)ccc2c1CCCC2,883
5,O=S1(=O)C=C(c2ccccc2)CC1,205
6,COc1cc(Cc2cnc(N)nc2N)cc(OCCCC#N)c1OC,1030
7,FC(F)(F)c1cccc(Nc2nc(-c3ccccc3)nc3ncccc23)c1,802
8,O=C(Nc1cc(Cl)ccc1O)c1cc(-c2ccccc2O)no1,1090
9,CCCc1cc(Cc2cnc(N)nc2N)cc(CCC)c1OCCCCCC(=O)OCC,51.7
10,Cc1ccc(Cn2nc(N3CCNCC3)ccc2=O)cc1NC(=O)Nc1ccc(-c2ccccc2)cc1,836
11,CNCCNCc1cccc(-c2ccc(-c3nc4cccc(C)c4[nH]3)cc2)c1,798
12,CCCCN(CCCC)CC(O)c1cc(-c2ccc(Cl)cc2)nc2c(Cl)cc(Cl)cc12 (centres undefined),26.3
13,N#Cc1ccc(N(CCNS(=O)(=O)c2cc(Br)c(Cl)s2)Cc2ccccc2C(F)(F)F)cc1C(F)(F)F,857
14,Cc1cc(NC(=O)Nc2ccc3ccn(C)c3c2)c2ccccc2n1,214
15,COc1cc(-c2cc3cc(Cl)c(Cl)cc3[nH]2)ccc1C(=O)NC1CCN(Cc2ccccc2)CC1,531
16,Fc1cccc(COc2ccc(Nc3ncnc4sc(C#CC5CCCCN5)cc34)cc2Cl)c1 (centres undefined),540
17,Cc1cc(NC(=O)Nc2ccc(Cl)cc2F)c2ccccc2n1,547
18,Cc1nc(C)c(C2CCC(c3ccc(Cl)cc3)CC2)c(O)c1Cl (centres undefined),51.8
19,CCN(CCCN1CCCCC1)c1cc(C)nc(Nc2ccc(C)cc2)n1,411
20,COc1cc2s/c(=N\C(=O)c3cccc([N+](=O)[O-])c3)n(C)c2cc1OC,722
21,COc1ccc(NC(=O)Nc2ccc(-c3ccccc3)cc2)cc1Cn1nc(Cl)c(N2CCCNCC2)cc1=O,364
22,O=C(Nc1ccc2oc(-c3ccc(Cl)cc3Cl)nc2c1)c1ccc([N+](=O)[O-])o1,1100
23,CC1(C)N=C(N)N=C(N)N1c1cccc(C(F)(F)F)c1,8.62
24,OC1=C2C(=Nc3ccccc3SC2c2cccs2)c2ccccc21 (centres undefined),229

# Source: ChEMBL document CHEMBL1157539, “Thousands of chemical starting points for antimalarial lead identification” (Nature, 2010)
